The source of these data is patent US20050196751A1, “Adenoviral vector-mediated delivery of modified steroid hormone receptors and related products and methods” (priority 1998, published 2005).

In this experiment the test system is C57BL/6 mice. As to the kind of experiment: Serum hGH in adenoviral infected mice after RU486 (radio-immunoassay). Type of experiment: in vivo, mouse. The procedure:
RU486 (250 μg/kg) was administered every second day after infection for a period of two weeks as indicated by arrows. Mice were bled at different time points and serum hGH was analyzed by radio-immunoassay. Mice 1 and 2 received intraperitoneal injections (IP) of RU486; Mouse 3 (−RU486) received sesame oil. hGH serum levels are shown as μg/ml.
Mice infected for two weeks with the regulatable adenoviral construct hGHGLp65 were induced with […] RU486 as indicated by an arrow. 3, 6, 12, 24, 48, 72, 120 and 192 hours after RU486 administration blood was drawn from the mice, and hGH was measured in the serum by a radio-immunoassay. hGH serum levels of individual mice are shown in μg/ml.
Mice infected with hGH-GLp65 or hGH-H-GLp65 adenoviral vectors were induced 3 times with 250 μg/kg RU486 over a time period of 50 Days. hGH was measured prior to, 12 hours after, and 7 days after RU486 administration. […] Serum levels of hGH are shown in μg/ml.
hGH analysis in adenoviral infected mice. […] Serum hGH levels were detected using a radio-immunoassay. […]
To investigate the kinetics of the regulatory system, mice received a single RU486 administration two weeks after the initial infection and serum hGH levels were measured at different time intervals. […]

Consider `CC#C[C@]1(O)CC[C@H]2[C@@H]3CCC4=CC(=O)CCC4=C3[C@@H](c3ccc(N(C)C)cc3)C[C@@]21C` [RU486, mifepristone], for which, under “induction of transgene in the regulatory system”, the “doses of RU486 needed for induction” value was 0.1 to 0.5 mg/kg. The “hGH induction with oral versus I.P. RU486” value (oral RU486 administration compared with intraperitoneal) is on record as “comparable”.
